Data reported in PubChem BioAssay (NCI).
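Where inhibition never reached the appropriate level, the endpoint shown equals the highest concentration tested. Otherwise, values were interpolated linearly from a five-concentration, 48-hour dose response in 96-well plates. Here, GI50 denotes the concentration required for 50% inhibition of growth. TGI denotes the concentration required for complete inhibition of growth.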

Columns and labels:
Experiment in all cases: inhibition of tumour cell growth, NCI panel, 48 h
[1] = test system: UACC-62 melanoma
[2] = test system: OVCAR-5 ovarian
[3] = test system: BT-549 breast
[4] = test system: CAKI-1 renal
[5] = test system: RXF 393 renal
[6] = test system: SF-539 CNS
[7] = test system: A498 renal
[8] = test system: UACC-257 melanoma
[9] = test system: MDA-MB-435
[10] = test system: SNB-75 CNS
[11] = test system: COLO 205 colon
[12] = test system: EKVX NSCLC
[13] = test system: KM12 colon
[14] = test system: DU-145 prostate
[15] = test system: T-47D breast
[16] = test system: CCRF-CEM leukemia
[17] = test system: TK-10 renal
[18] = test system: NCI-H460 lung
[19] = test system: HCC-2998 colon
[20] = test system: SF-268 CNS
[21] = test system: NCI-H226 lung
[22] = test system: OVCAR-3 ovarian
[23] = test system: IGROV1 ovarian
[24] = test system: SK-OV-3 ovarian
[25] = test system: MOLT-4 leukemia
[26] = test system: HOP-92 NSCLC
[27] = test system: SF-295 CNS
[28] = test system: SK-MEL-5 melanoma
[29] = test system: A549 NSCLC
[30] = test system: HCT-116 colon
[31] = test system: HS 578T breast
[32] = test system: HT29 colon
[33] = test system: SK-MEL-28 melanoma
[34] = test system: U251 CNS
[35] = test system: OVCAR-4 ovarian
[36] = test system: MALME-3M melanoma
[37] = test system: UO-31 renal
[38] = test system: ACHN renal
[39] = test system: NCI/ADR-RES ovarian
[40] = test system: NCI-H23 lung
[41] = test system: SK-MEL-2 melanoma
[42] = test system: MDA-MB-231 breast
[43] = test system: SNB-19 CNS
[44] = test system: SW-620 colon
[45] = test system: SR leukemia
[46] = test system: RPMI-8226 leukemia
[47] = test system: 786-0 renal
[48] = test system: OVCAR-8 ovarian
[49] = test system: SN12C renal
[50] = test system: HOP-62 NSCLC
[51] = test system: LOX IMVI melanoma
[52] = test system: MCF7 breast
[53] = test system: HCT-15 colon
[54] = test system: HL-60(TB) leukemia
[55] = test system: M14 melanoma
[56] = test system: NCI-H522 lung
[57] = test system: K-562 leukemia
[58] = test system: PC-3 prostate

With COc1cccc(C(=O)NNc2nc(Cl)nc(N3CCN(C(c4ccccc4)c4ccccc4)CC3)n2)c1 the GI50 [1] was 2.3 µM, the TGI [1] was 5.85 µM and the GI50 [2] was 16.3 µM. The TGI [2] was 40 µM, the GI50 [3] was 1.63 µM and the TGI [3] was 3.31 µM. It also gave a GI50 [4] of 1.87 µM, a TGI [4] of 4.31 µM and a GI50 [5] of 2.7 µM. The TGI [5] was 8.28 µM, the GI50 [6] was 2.08 µM and the TGI [6] was 4.3 µM. For the same molecule, the GI50 [7] was 14.1 µM, the TGI [7] was 40.2 µM and the GI50 [8] was 3.06 µM. For the same molecule, the TGI [8] was 11.7 µM, the GI50 [9] was 3.96 µM and the TGI [9] was 14.2 µM. For the same molecule, the GI50 [10] was 1.51 µM, the TGI [10] was 3.56 µM and the GI50 [11] was 3.67 µM. It also gave a TGI [11] of 14.3 µM, a GI50 [12] of 5.76 µM and a TGI [12] of 20 µM. It also gave a GI50 [13] greater than 100 µM, a TGI [13] greater than 100 µM and a GI50 [14] of 4.3 µM. It also gave a TGI [14] of 15.3 µM, a GI50 [15] greater than 100 µM and a TGI [15] greater than 100 µM. The GI50 [16] was 2.23 µM, the TGI [16] was 30.4 µM and the GI50 [17] was 51 µM. For the same molecule, the TGI [17] was greater than 100 µM, the GI50 [18] was 3.26 µM and the TGI [18] was 12 µM. For the same molecule, the GI50 [19] was 1.77 µM, the TGI [19] was 3.43 µM and the GI50 [20] was 2.07 µM. It also gave a TGI [20] of 4.73 µM, a GI50 [21] of 17 µM and a TGI [21] of 38 µM. It also gave a GI50 [22] of 1.72 µM, a TGI [22] of 3.28 µM and a GI50 [23] of 1.63 µM. For the same molecule, the TGI [23] was 3.07 µM, the GI50 [24] was 13.2 µM and the TGI [24] was 26 µM. The GI50 [25] was 2.36 µM, the TGI [25] was 7.54 µM and the GI50 [26] was 1.57 µM. For the same molecule, the TGI [26] was 3.82 µM, the GI50 [27] was 16.8 µM and the TGI [27] was 30.4 µM. For the same molecule, the GI50 [28] was 15.9 µM, the TGI [28] was 29.7 µM and the GI50 [29] was 22.1 µM. It also gave a TGI [29] of 83.6 µM, a GI50 [30] of 1.77 µM and a TGI [30] of 3.73 µM. For the same molecule, the GI50 [31] was 1.95 µM, the TGI [31] was 4.9 µM and the GI50 [32] was 2.12 µM. The TGI [32] was 4.8 µM, the GI50 [33] was 2.21 µM and the TGI [33] was 5.38 µM. The GI50 [34] was 1.78 µM, the TGI [34] was 3.51 µM and the GI50 [35] was 1.73 µM. The TGI [35] was 3.44 µM, the GI50 [36] was 1.7 µM and the TGI [36] was 3.78 µM. It also gave a GI50 [37] of 3.14 µM, a TGI [37] of 22 µM and a GI50 [38] of 1.76 µM. The TGI [38] was 3.16 µM, the GI50 [39] was 2.18 µM and the TGI [39] was 5.05 µM. It also gave a GI50 [40] of 2.7 µM, a TGI [40] of 7.5 µM and a GI50 [41] of 2.14 µM. For the same molecule, the TGI [41] was 5.31 µM, the GI50 [42] was 1.88 µM and the TGI [42] was 3.85 µM. For the same molecule, the GI50 [43] was 1.88 µM, the TGI [43] was 3.98 µM and the GI50 [44] was 1.9 µM. It also gave a TGI [44] of 3.98 µM, a GI50 [45] of 0.852 µM and a TGI [45] of 4.26 µM. It also gave a GI50 [46] greater than 100 µM, a TGI [46] greater than 100 µM and a GI50 [47] of 3.4 µM. It also gave a TGI [47] of 13.1 µM, a GI50 [48] of 2.02 µM and a TGI [48] of 4.53 µM. For the same molecule, the GI50 [49] was 1.8 µM, the TGI [49] was 3.47 µM and the GI50 [50] was 8.71 µM. The TGI [50] was 23.5 µM, the GI50 [51] was 1.7 µM and the TGI [51] was 3.14 µM. The GI50 [52] was 82.2 µM, the TGI [52] was greater than 100 µM and the GI50 [53] was 1.9 µM. It also gave a TGI [53] of 3.73 µM, a GI50 [54] of 6.29 µM and a TGI [54] of 43.9 µM. The GI50 [55] was 1.7 µM and the TGI [55] was 3.53 µM.
Clc1nc(Cl)c2ncn(-c3ccccc3)c2n1 gave a GI50 [1] of 11.3 µM, a TGI [1] of 25.3 µM and a GI50 [2] of 15 µM. The TGI [2] was 30.4 µM, the GI50 [3] was 15.9 µM and the TGI [3] was 29.5 µM. For the same molecule, the GI50 [5] was 5.66 µM, the TGI [5] was 18.8 µM and the GI50 [56] was 1.9 µM. It also gave a TGI [56] of 5.09 µM, a GI50 [57] of 2.61 µM and a TGI [57] of 7.05 µM. It also gave a GI50 [6] of 10.6 µM, a TGI [6] of 27.3 µM and a GI50 [7] of 12 µM. The TGI [7] was 25 µM, the GI50 [8] was 6.86 µM and the TGI [8] was 20.2 µM. It also gave a GI50 [9] of 3.32 µM, a TGI [9] of 13.2 µM and a GI50 [10] of 2.93 µM. For the same molecule, the TGI [10] was 13.9 µM, the GI50 [11] was 3.4 µM and the TGI [11] was 13.5 µM. The GI50 [12] was 4.49 µM, the TGI [12] was 19.2 µM and the GI50 [13] was 12.8 µM. It also gave a TGI [13] of 25.8 µM, a GI50 [14] of 1.44 µM and a TGI [14] of 2.96 µM. For the same molecule, the GI50 [15] was 2.95 µM, the TGI [15] was 8.63 µM and the GI50 [16] was 2.7 µM. It also gave a TGI [16] of 6.55 µM, a GI50 [17] of 7.46 µM and a TGI [17] of 20.9 µM. The GI50 [18] was 6.24 µM, the TGI [18] was 23.5 µM and the GI50 [20] was 3.26 µM. For the same molecule, the TGI [20] was 15.4 µM, the GI50 [21] was 12.1 µM and the TGI [21] was 28.5 µM. It also gave a GI50 [22] of 1.69 µM, a TGI [22] of 3.46 µM and a GI50 [23] of 1.66 µM. The TGI [23] was 3.38 µM, the GI50 [24] was 12.5 µM and the TGI [24] was 25 µM. For the same molecule, the GI50 [25] was 7.95 µM, the TGI [25] was 52.3 µM and the GI50 [26] was 2.15 µM. For the same molecule, the TGI [26] was 5.51 µM, the GI50 [27] was 10.3 µM and the TGI [27] was 23 µM. The GI50 [28] was 10.4 µM, the TGI [28] was 22.3 µM and the GI50 [58] was 5.29 µM. For the same molecule, the TGI [58] was 20.1 µM, the GI50 [29] was 12.9 µM and the TGI [29] was 29.8 µM. The GI50 [30] was 2 µM, the TGI [30] was 4.69 µM and the GI50 [31] was 7.13 µM. The TGI [31] was 64.9 µM, the GI50 [32] was 3.87 µM and the TGI [32] was 13.5 µM. The GI50 [33] was 4.69 µM, the TGI [33] was 17.3 µM and the GI50 [34] was 1.8 µM. The TGI [34] was 3.73 µM, the GI50 [35] was 10.5 µM and the TGI [35] was 24.5 µM. The GI50 [36] was 2.01 µM, the TGI [36] was 7.12 µM and the GI50 [37] was 1.63 µM. The TGI [37] was 3.13 µM, the GI50 [38] was 1.96 µM and the TGI [38] was 4.12 µM. The GI50 [39] was 1.85 µM, the TGI [39] was 3.55 µM and the GI50 [40] was 2.14 µM. For the same molecule, the TGI [40] was 4.84 µM, the GI50 [41] was 13.8 µM and the TGI [41] was 27.1 µM. For the same molecule, the GI50 [42] was 10.7 µM, the TGI [42] was 24.5 µM and the GI50 [43] was 10.7 µM. For the same molecule, the TGI [43] was 23.9 µM, the GI50 [44] was 2.08 µM and the TGI [44] was 5.74 µM. It also gave a GI50 [45] of 2.73 µM, a TGI [45] of 9.51 µM and a GI50 [47] of 5.51 µM. For the same molecule, the TGI [47] was 18.3 µM, the GI50 [48] was 4.4 µM and the TGI [48] was 19 µM. For the same molecule, the GI50 [49] was 7.45 µM, the TGI [49] was 21.5 µM and the GI50 [51] was 1.67 µM. It also gave a TGI [51] of 3.28 µM, a GI50 [52] of 4.09 µM and a TGI [52] of 24.3 µM. The GI50 [53] was 3.42 µM, the TGI [53] was 16 µM and the GI50 [54] was 1.96 µM. It also gave a TGI [54] of 4.21 µM, a GI50 [55] of 1.86 µM and a TGI [55] of 3.85 µM.
